Ki data for 35 compounds are collected here from patent publication US8921376B2, “Pyrrolopyridines useful as inhibitors of protein kinase” (Vertex Pharmaceuticals Incorporated, priority 2005, dated 2014).

The structures appear in SMILES notation.

Holding throughout (format): biochemical
One test deals with T1, JAK3 (Homo sapiens, UniProt P52333).
T1 sequence (P52333 1-1124): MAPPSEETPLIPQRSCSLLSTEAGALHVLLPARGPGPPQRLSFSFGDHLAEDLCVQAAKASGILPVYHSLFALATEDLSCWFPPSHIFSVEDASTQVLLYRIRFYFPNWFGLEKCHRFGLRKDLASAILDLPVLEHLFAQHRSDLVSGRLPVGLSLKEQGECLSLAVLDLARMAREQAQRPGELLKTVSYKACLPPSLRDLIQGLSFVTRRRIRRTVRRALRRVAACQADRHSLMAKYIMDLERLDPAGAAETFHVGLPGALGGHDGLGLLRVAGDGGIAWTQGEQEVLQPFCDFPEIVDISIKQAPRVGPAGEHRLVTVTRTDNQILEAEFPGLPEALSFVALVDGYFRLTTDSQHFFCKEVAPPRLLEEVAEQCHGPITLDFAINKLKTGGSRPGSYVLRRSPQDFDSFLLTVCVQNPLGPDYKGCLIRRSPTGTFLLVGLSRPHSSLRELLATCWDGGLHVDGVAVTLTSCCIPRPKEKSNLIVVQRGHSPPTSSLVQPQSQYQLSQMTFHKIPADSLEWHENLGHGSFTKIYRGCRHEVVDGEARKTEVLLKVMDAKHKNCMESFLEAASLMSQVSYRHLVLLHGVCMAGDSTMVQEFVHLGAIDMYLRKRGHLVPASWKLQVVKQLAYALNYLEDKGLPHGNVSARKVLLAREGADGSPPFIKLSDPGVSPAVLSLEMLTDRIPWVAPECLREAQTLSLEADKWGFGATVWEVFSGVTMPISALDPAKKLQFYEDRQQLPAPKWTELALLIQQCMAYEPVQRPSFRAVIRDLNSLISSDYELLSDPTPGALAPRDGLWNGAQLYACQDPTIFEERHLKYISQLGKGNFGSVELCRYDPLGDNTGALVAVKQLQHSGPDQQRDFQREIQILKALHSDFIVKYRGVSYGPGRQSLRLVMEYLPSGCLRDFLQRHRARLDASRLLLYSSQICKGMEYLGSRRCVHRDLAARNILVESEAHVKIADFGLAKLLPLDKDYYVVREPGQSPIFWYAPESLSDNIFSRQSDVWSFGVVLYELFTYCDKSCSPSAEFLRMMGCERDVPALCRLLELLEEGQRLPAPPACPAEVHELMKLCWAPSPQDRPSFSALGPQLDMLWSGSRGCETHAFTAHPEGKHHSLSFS
Kind of test: JAK3 inhibition assay (33P incorporation into poly(Glu)4Tyr). An outline of the steps:
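After TCA quench and filter harvest, scintillation counting of 33P measured phosphorylation of poly(Glu)4Tyr (1 μM) by 1 nM JAK3. The 20-min, 25° C. reaction contained 5 μM ATP (200 μCi/μmole) in pH 7.4 HEPES buffer with 10 mM MgCl2.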

For a further test, the target named is JAK2 (Homo sapiens, UniProt O60674). The test can be described thus: JAK2 inhibition assay (as Example 3 with JAK-2 enzyme). An outline of the steps: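 In HEPES pH 7.4 buffer with 10 mM MgCl2, 1 mM DTT, 25 mM NaCl and 0.01% BSA, JAK2 enzyme phosphorylated poly(Glu)4Tyr (final 15 μM) using 33P-ATP (final 12 μM) for 20 min at room temperature (25 °C). Reactions stopped with TCA; incorporated 33P measured by scintillation after filtration.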

The target in a further test is ROCK I (Homo sapiens, UniProt Q13464). The test can be described thus: ROCK-I inhibition assay (radioactive enzyme assay, MBP substrate). The gist of the method:
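Human ROCK at 5 nM phosphorylated 27 μM myelin basic protein with 13 μM [γ-33P]ATP (final) in HEPES pH 7.5, MgCl2, NaCl, DTT and 1.5% DMSO. Reactions ran 2 h at room temperature before TCA quench and filter-plate scintillation counting. After background subtraction, data were fit to give Ki(app).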

[1] abbreviates: Table 6, enzyme inhibition data (Ki).
Setting [2] is: enzyme inhibition, Ki(app), Table 5.

Sequence of ROCK I (Q13464 whole entry): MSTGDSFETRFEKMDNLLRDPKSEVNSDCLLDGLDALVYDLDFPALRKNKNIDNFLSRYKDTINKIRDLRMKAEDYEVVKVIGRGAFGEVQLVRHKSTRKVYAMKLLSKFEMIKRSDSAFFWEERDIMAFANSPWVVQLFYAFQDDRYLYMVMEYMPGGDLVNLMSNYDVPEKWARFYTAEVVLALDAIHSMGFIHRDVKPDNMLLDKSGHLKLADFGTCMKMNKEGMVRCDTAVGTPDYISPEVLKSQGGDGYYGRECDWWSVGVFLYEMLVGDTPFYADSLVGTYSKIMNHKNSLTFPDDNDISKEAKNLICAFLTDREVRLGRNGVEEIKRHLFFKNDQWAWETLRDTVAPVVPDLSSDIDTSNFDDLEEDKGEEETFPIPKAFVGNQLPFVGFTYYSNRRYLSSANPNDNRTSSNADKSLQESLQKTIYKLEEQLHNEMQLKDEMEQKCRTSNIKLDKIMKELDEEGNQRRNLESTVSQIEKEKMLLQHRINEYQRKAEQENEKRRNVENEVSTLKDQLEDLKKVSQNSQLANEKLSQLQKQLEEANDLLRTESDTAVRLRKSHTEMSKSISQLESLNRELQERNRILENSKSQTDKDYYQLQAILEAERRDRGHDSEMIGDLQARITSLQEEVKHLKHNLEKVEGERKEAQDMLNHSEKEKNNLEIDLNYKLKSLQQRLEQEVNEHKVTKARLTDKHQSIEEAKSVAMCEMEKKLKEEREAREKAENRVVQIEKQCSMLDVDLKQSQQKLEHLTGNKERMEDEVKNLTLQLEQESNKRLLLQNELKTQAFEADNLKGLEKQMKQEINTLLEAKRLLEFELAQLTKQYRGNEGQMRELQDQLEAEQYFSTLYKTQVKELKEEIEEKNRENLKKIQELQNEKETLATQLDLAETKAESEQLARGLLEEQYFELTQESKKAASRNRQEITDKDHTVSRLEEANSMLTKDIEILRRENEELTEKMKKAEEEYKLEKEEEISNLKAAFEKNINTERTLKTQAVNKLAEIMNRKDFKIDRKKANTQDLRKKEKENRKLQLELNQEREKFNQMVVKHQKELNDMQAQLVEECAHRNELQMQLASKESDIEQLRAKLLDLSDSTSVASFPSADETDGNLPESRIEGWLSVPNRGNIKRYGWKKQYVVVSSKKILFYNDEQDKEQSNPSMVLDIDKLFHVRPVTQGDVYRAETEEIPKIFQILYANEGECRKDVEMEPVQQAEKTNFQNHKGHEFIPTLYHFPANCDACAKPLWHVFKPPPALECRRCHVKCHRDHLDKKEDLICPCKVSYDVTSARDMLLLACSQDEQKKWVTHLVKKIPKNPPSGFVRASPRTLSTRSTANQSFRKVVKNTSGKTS
Sequence of JAK2 (O60674 whole entry): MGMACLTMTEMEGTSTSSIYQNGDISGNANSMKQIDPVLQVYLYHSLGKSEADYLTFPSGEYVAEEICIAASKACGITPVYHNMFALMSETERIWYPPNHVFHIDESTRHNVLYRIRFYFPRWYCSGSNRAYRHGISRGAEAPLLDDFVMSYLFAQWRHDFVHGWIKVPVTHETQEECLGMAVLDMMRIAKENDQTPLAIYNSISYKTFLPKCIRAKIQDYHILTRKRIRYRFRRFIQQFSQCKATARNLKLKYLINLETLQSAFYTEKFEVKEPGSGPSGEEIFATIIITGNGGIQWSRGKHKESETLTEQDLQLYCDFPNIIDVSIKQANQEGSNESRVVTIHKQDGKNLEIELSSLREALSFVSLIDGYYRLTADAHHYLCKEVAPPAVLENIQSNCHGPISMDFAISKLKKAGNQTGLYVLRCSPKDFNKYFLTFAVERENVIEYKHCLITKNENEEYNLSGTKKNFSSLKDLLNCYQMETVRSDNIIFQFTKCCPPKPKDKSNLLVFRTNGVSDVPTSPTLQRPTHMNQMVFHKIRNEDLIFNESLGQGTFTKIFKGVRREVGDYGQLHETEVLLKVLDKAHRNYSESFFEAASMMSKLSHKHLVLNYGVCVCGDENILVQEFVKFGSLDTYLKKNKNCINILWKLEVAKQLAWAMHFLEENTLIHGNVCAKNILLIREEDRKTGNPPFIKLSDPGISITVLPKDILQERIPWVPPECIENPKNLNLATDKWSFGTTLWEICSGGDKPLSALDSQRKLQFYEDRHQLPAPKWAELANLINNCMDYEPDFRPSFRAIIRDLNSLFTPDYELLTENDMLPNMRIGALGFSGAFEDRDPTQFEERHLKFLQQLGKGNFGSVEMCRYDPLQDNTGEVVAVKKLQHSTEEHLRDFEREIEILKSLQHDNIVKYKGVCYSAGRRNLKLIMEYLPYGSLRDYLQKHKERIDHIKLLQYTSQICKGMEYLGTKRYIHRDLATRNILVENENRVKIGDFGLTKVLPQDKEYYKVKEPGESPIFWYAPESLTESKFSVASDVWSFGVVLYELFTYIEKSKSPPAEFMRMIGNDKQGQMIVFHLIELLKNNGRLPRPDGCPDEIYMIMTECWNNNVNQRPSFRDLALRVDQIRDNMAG

With `Clc1cccc(-c2ccnc3[nH]ccc23)c1Cl` [compound 224], the Ki was 0.5 to 5 µM at JAK3 (setting [1]), 0.5 to 5 µM at JAK2 (setting [1]) and less than 0.5 µM at ROCK I (setting [1]).

Consider `FC(F)(F)c1cccc(-c2ccnc3[nH]ccc23)c1` [compound 113, 4-(3-Trifluoromethyl-phenyl)-1H-pyrrolo[2,3-b]pyridine], for which the Ki at JAK3 (enzyme inhibition, Table 5) is 0.5 to 5 µM; at JAK2 (enzyme inhibition, Table 5), less than 0.5 µM; on ROCK I (setting [2]), less than 0.5 µM.

With `CN(CC(O)c1ccccc1)c1cccc(-c2ccnc3[nH]ccc23)n1` (stereo not drawn) [compound 55, 2-(N-(6-(1H-pyrrolo[2,3-b]pyridin-4-yl)pyridin-2-yl)-N-methylamino)1-phenylethanol], the Ki at JAK3 (enzyme inhibition, Table 5) is 0.5 to 5 µM; at JAK2 (enzyme inhibition, Table 5), less than 0.5 µM; on ROCK I (setting [2]), less than 0.5 µM.

For the compound `N#CCN(Cc1ccc(F)cc1)C(=O)c1cc(-c2c(F)cnc3[nH]ccc23)c[nH]1` [compound 400], the Ki at JAK3 (setting [1]), on JAK2 (setting [1]) and at ROCK I (setting [1]) was less than 0.5 µM throughout.

`N#CCN(Cc1ccccc1)C(=O)c1cc(-c2c(F)cnc3[nH]ccc23)c[nH]1` [compound 391]: the Ki on JAK3 (setting [1]), on JAK2 (setting [1]) and on ROCK I (setting [1]) was less than 0.5 µM in each case.

For `N#CCCN(Cc1ccccc1)C(=O)c1cc(-c2ccnc3[nH]ccc23)c[nH]1` [compound 312], the Ki at JAK3 (setting [1]), on JAK2 (setting [1]) and at ROCK I (setting [1]) was less than 0.5 µM each time.

On to `CCOC(=O)C1CCN(C(=O)c2cc(-c3ccnc4[nH]ccc34)c[nH]2)CC1` [compound 364], for which the Ki at JAK3 (setting [1]), at JAK2 (setting [1]) and at ROCK I (setting [1]) was 0.5 to 5 µM throughout.

Regarding `N#CCCNC(=O)c1cc(-c2ccnc3[nH]ccc23)c[nH]1` [compound 296], the Ki on JAK3 (setting [1]), on JAK2 (setting [1]) and at ROCK I (setting [1]) was less than 0.5 µM each time.

Take `CCCCN(CCC#N)C(=O)c1cc(-c2c(Cl)cnc3[nH]ccc23)c[nH]1` [compound 336]: the Ki at JAK3 (setting [1]) was less than 0.5 µM; on JAK2 (setting [1]) it was less than 0.5 µM; at ROCK I (setting [1]) it was 0.5 to 5 µM.

Consider `Clc1cnc2[nH]ccc2c1-c1ccoc1` [compound 139], for which the Ki is less than 0.5 µM on JAK3 (setting [1]), less than 0.5 µM on JAK2 (setting [1]) and 0.5 to 5 µM on ROCK I (setting [1]).

With `Fc1cccc(-c2c(Cl)cnc3[nH]ccc23)n1` [compound 48, 5-chloro-4-(6-fluoropyridin-2-yl)-1H-pyrrolo[2,3-b]pyridine], the Ki on JAK3 (enzyme inhibition, Table 5) was less than 0.5 µM; on JAK2 (enzyme inhibition, Table 5) it was less than 0.5 µM; at ROCK I (setting [2]), 0.5 to 5 µM.

On to `CC1CCC(C)N1C(=O)c1cc(-c2c(Cl)cnc3[nH]ccc23)c[nH]1` (stereo not drawn) [compound 359], for which the values for the Ki at JAK3 (setting [1]), on JAK2 (setting [1]) and at ROCK I (setting [1]) were less than 0.5 µM, less than 0.5 µM and 0.5 to 5 µM, respectively.

Consider `CCCCN(CCC#N)C(=O)c1cc(-c2c(F)cnc3[nH]ccc23)c[nH]1` [compound 397], for which the Ki at JAK3 (setting [1]), at JAK2 (setting [1]) and on ROCK I (setting [1]) was less than 0.5 µM in each case.

In the case of `Clc1ccccc1-c1ccnc2[nH]ccc12` [compound 216], the Ki at JAK3 (setting [1]), at JAK2 (setting [1]) and on ROCK I (setting [1]) was 0.5 to 5 µM throughout.

`CC(C)(C(=O)O)c1cccc(-c2ccnc3[nH]ccc23)n1` [compound 96, 2-(6-(1H-pyrrolo[2,3-b]pyridin-4-yl)pyridin-2-yl)-2-methylpropanoic acid]: the Ki lay within 0.5 to 5 µM at JAK3 (enzyme inhibition, Table 5); 0.5 to 5 µM at JAK2 (enzyme inhibition, Table 5); 0.5 to 5 µM on ROCK I (setting [2]).

Consider `N#CCC(=O)N1CCCN(c2cccc(-c3ccnc4[nH]ccc34)n2)CC1` [compound 19], for which the Ki is 0.5 to 5 µM on JAK3 (enzyme inhibition, Table 5); less than 0.5 µM at JAK2 (enzyme inhibition, Table 5); 0.5 to 5 µM at ROCK I (setting [2]).

For `O=C(NCC(F)(F)F)c1cc(-c2c(Cl)cnc3[nH]ccc23)c[nH]1` [compound 276], the Ki on JAK3 (setting [1]) was less than 0.5 µM; at JAK2 (setting [1]), less than 0.5 µM; at ROCK I (setting [1]), 0.5 to 5 µM.

On to `C=C(c1c(Cl)cnc2[nH]ccc12)C1CCCCC1` [compound 69], for which the Ki at JAK3 (enzyme inhibition, Table 5) was less than 0.5 µM; on JAK2 (enzyme inhibition, Table 5), 0.5 to 5 µM; on ROCK I (setting [2]) it was 0.5 to 5 µM.

Take `CC(C)(C)OC(=O)N1CCC[C@@H](Nc2c(Cl)cnc3[nH]ccc23)C1` [compound 164]: the values for the Ki at JAK3 (setting [1]), at JAK2 (setting [1]) and on ROCK I (setting [1]) were less than 0.5 µM, less than 0.5 µM and greater than 4 µM, respectively.

In the case of `N#CCCN(CCC(F)(F)F)C(=O)c1cc(-c2c(F)cnc3[nH]ccc23)c[nH]1` [compound 384], the Ki was less than 0.5 µM at JAK3 (setting [1]), less than 0.5 µM at JAK2 (setting [1]) and 0.5 to 5 µM at ROCK I (setting [1]).

As to `CN(C)C(=O)c1cccc(-c2ccnc3[nH]ccc23)c1` [compound 92, N,N-Dimethyl-3-(1H-pyrrolo[2,3-b]pyridin-4-yl)-benzamide], the Ki lay in the range of 0.5 to 5 µM on JAK3 (enzyme inhibition, Table 5); 0.5 to 5 µM on JAK2 (enzyme inhibition, Table 5); 0.5 to 5 µM at ROCK I (setting [2]).

On to `C#CCOC(=O)N1CC[C@H](Nc2c(Cl)cnc3[nH]ccc23)C1` [compound 165], for which the Ki is less than 0.5 µM at JAK3 (setting [1]), less than 0.5 µM at JAK2 (setting [1]) and greater than 4 µM on ROCK I (setting [1]).

Turning to `N#CCC(=O)N1CC[C@@H](Nc2c(Cl)cnc3[nH]ccc23)C1` [compound 190], the Ki at JAK3 (setting [1]) is less than 0.5 µM; on JAK2 (setting [1]), less than 0.5 µM; at ROCK I (setting [1]) it was 0.5 to 5 µM.

Regarding `C=CCN(CC=C)C(=O)c1csc(-c2ccnc3[nH]ccc23)n1` [compound 401], the Ki on JAK3 (setting [1]), at JAK2 (setting [1]) and at ROCK I (setting [1]) was less than 0.5 µM each time.

For `CN1CCN(C(=O)c2cccc(-c3ccnc4[nH]ccc34)c2)CC1` [compound 95, (4-Methyl-piperazin-1-yl)-[3-(1H-pyrrolo[2,3-b]pyridin-4-yl)-phenyl]-methanone], the Ki on JAK3 (enzyme inhibition, Table 5) was greater than 5 µM; at JAK2 (enzyme inhibition, Table 5), greater than 5 µM; on ROCK I (setting [2]), 0.5 to 5 µM.

For the compound `CN(CCc1ccccn1)C(=O)c1cc(-c2c(Cl)cnc3[nH]ccc23)c[nH]1` [compound 351], the figures for the Ki at JAK3 (setting [1]), on JAK2 (setting [1]) and at ROCK I (setting [1]) were less than 0.5 µM, less than 0.5 µM and greater than 4 µM, respectively.

Turning to `CC(C)CN(CC(C)C)C(=O)c1cc(-c2c(Cl)cnc3[nH]ccc23)c[nH]1` [compound 342], the figures for the Ki on JAK3 (setting [1]), at JAK2 (setting [1]) and at ROCK I (setting [1]) were less than 0.5 µM, less than 0.5 µM and greater than 4 µM, respectively.

Regarding `N#Cc1ccc(Cl)cc1Nc1c(Cl)cnc2[nH]ccc12` [compound 159], the values for the Ki on JAK3 (setting [1]), at JAK2 (setting [1]) and on ROCK I (setting [1]) were less than 0.5 µM, less than 0.5 µM and greater than 4 µM, respectively.

Take `C=C(c1c(Cl)cnc2[nH]ccc12)C1CCCC1` [compound 67]: the Ki on JAK3 (enzyme inhibition, Table 5) was less than 0.5 µM; on JAK2 (enzyme inhibition, Table 5) it was less than 0.5 µM; at ROCK I (setting [2]) it was 0.5 to 5 µM.

Take `CC(C)(C(=O)NCC(F)(F)F)c1cccc(-c2ccnc3[nH]ccc23)n1` [compound 265]: the Ki at JAK3 (setting [1]), at JAK2 (setting [1]) and on ROCK I (setting [1]) was less than 0.5 µM each time.

For the compound `CCCN(CC(F)(F)F)C(=O)c1csc(-c2ccnc3[nH]ccc23)n1` [compound 407], the Ki at JAK3 (setting [1]), at JAK2 (setting [1]) and on ROCK I (setting [1]) was less than 0.5 µM in each case.

As to `Clc1ccc(Cl)c(-c2ccnc3[nH]ccc23)c1` [compound 211], the values for the Ki on JAK3 (setting [1]), at JAK2 (setting [1]) and at ROCK I (setting [1]) were 0.5 to 5 µM, 0.5 to 5 µM and less than 0.5 µM, respectively.

Regarding `CCN(Cc1ccccn1)C(=O)c1ccc(-c2ccnc3[nH]ccc23)s1` [compound 318], the Ki on JAK3 (setting [1]), at JAK2 (setting [1]) and at ROCK I (setting [1]) was less than 0.5 µM each time.

As for `O=C(c1cc(-c2c(Cl)cnc3[nH]ccc23)c[nH]1)N1CCCC1C(F)(F)F` (stereo not drawn) [compound 358], the results for the Ki on JAK3 (setting [1]), at JAK2 (setting [1]) and at ROCK I (setting [1]) were less than 0.5 µM, less than 0.5 µM and 0.5 to 5 µM, respectively.

With `CN(C)c1cccc(-c2ccnc3[nH]ccc23)c1` [compound 31, Dimethyl-[3-(1H-pyrrolo[2,3-b]pyridin-4-yl)-phenyl]-amine], the Ki was less than 0.5 µM on JAK3 (enzyme inhibition, Table 5); less than 0.5 µM at JAK2 (enzyme inhibition, Table 5); less than 0.5 µM on ROCK I (setting [2]).
